Key:
Serum = assay: Induction of nitric oxide release in rat serum containing phosphate buffer at pH 7.4; type: functional; set-up: concentration or dose not given beside the values
[1] = Induction of nitric oxide release in phosphate buffer at pH 7.4; type: physicochemical
[2] = biological target: T1, Prostaglandin G/H synthase 1 (Ovis aries, UniProt P05979)
T1 sequence (P05979 whole entry): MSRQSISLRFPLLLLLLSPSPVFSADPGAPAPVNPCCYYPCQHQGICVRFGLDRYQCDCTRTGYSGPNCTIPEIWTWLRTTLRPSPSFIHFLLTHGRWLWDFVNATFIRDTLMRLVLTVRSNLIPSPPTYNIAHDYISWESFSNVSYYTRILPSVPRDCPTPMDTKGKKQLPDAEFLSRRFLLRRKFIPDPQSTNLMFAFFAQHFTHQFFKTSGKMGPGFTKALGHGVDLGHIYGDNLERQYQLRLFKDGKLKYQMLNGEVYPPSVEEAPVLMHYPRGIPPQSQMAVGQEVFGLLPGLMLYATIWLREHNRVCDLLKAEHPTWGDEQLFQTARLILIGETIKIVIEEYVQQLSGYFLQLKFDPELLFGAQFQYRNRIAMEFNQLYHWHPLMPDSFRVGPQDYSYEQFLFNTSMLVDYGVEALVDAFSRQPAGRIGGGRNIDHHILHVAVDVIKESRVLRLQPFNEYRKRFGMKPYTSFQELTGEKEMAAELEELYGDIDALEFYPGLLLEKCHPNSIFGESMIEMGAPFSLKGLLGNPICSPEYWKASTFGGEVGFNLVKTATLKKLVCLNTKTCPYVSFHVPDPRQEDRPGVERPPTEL
Description: Inhibition of ovine COX1 by enzyme immunoassay

Rattus norvegicus [3] = assay: Antiinflammatory activity in po dosed rat assessed as inhibition of carrageenan-induced paw edema after 3 hrs; type: functional
Rattus norvegicus [4] = organism: Rattus norvegicus; assay: animal or person; type: functional; settings: 3 h
[5] = Selectivity ratio of IC50 for ovine COX1 to IC50 for human COX2

| Compound | Activity [1] [%] | IC50 [2] [µM] | Ratio IC50 [5] | Activity (Serum) [%] | ED50 (Rattus norvegicus [3]) [µmol/kg] | inhibition in vivo at 113.8 µmol/kg (Rattus norvegicus [4]) [%] |
| --- | --- | --- | --- | --- | --- | --- |
| CN(CCO)/[N+]([O-])=N\O | 84.5 |  |  | 84.8 |  |  |
| [O-]/[N+](=N\O)N1CCC[C@H]1CO | 84.5 |  |  | 85 |  |  |
| CC(=O)OCO/N=[N+](\[O-])N(C)CCOC(=O)Cc1ccc(-c2cc(C(F)(F)F)nn2-c2ccc(S(N)(=O)=O)cc2)cc1 | 7.2 | 35.4 |  | 74.6 |  | 55.8 |
| CC(=O)Oc1ccccc1C(=O)O [ASPIRIN] |  |  |  |  | 714 |  |
| CC(=O)OCO/N=[N+](\[O-])N1CCC[C@H]1COC(=O)Cc1ccc(-c2cc(C(F)(F)F)nn2-c2ccc(S(N)(=O)=O)cc2)cc1 | 5.4 | 13.4 | 14.4 | 59.6 |  | 46.5 |

The next lines start with results.

| Activity [1] [%] | IC50 [2] [µM] | Ratio IC50 [5] | Compound | Activity (Serum) [%] | ED50 (Rattus norvegicus [3]) [µmol/kg] | inhibition in vivo at 113.8 µmol/kg (Rattus norvegicus [4]) [%] |
| --- | --- | --- | --- | --- | --- | --- |
| 5 | 11.8 |  | CC(=O)OCO/N=[N+](\[O-])N1CCC[C@H]1COC(=O)Cc1ccc(-c2cc(C(F)(F)F)nn2-c2ccc(S(C)(=O)=O)cc2)cc1 | 62.9 |  |  |
| 6.9 | 8.2 |  | CC(=O)OCO/N=[N+](\[O-])N(C)CCOC(=O)Cc1ccc(-c2cc(C(F)(F)F)nn2-c2ccc(S(C)(=O)=O)cc2)cc1 | 72.2 |  |  |
|  | 8.1 |  | NS(=O)(=O)c1ccc(-n2nc(C(F)(F)F)cc2-c2ccc(CC(=O)O)cc2)cc1 |  | 114 | 50 |
|  | 65.2 |  | CS(=O)(=O)c1ccc(-n2nc(C(F)(F)F)cc2-c2ccc(CC(=O)O)cc2)cc1 |  | 216 |  |
